Key:
[1] = tested on: KB cells overpressing TP (KB/TP); test: Millipore chamber angiogenesis assay, chamber with KB cells implanted dorsal subcutaneously in mouse; format: in vivo; conditions: for number of angiogenesis (longer than 3 mm, zig-zag pattern): 100 mg/kg/day into abdominal cavity every 12 hours for 4 days, male BALB/c mouse
Protocol: KB cells overpressing TP (KB/TP) prepared by transfection of […] into KB cells and TP-negative KB cells (KB/CV) prepared by transfection of an empty vector are rinsed by phosphate buffered saline PBS for two times, each 1×10^5 numbers are contained into a Millipore chamber (10 mm diameter, 2 mm thickness, pore size of filter is 0.22 μm) and inserted into dorsal subcutaneous of a male BALB/c mouse of 6-7 weeks age. 2-deoxy-L-ribose (100 mg/kg/day) is administered into abdominal cavity every 12 hours for 4 days. After 4 days from the implanting, the Millipore chamber is removed, and numbers of angiogenesis (longer than 3 mm and showing zig-zag pattern) were counted using a microscope. Results by microscope observation are shown in FIG. 2 (picture A, B, C and D). The number of angiogenesis by KB/TP cell (B) is 4.33 and that of KB/CV cell (B) is 2.67. When 2-deoxy-L-ribose is administereded, that of KB/TP cell (D) becomes to 2.83 and that of […] becomes to 2.83.

[2] = tested on: BAE cell (endothelial cells of bovine aorta); test: Chemotaxis of BAE cells (collagen-coated chamber, MTT method); format: cell-based; conditions: 2DDR 10 μM + 2DLR 100 μM versus 2DDR 10 μM alone; DMEM + 1% FCS; incubation 4.5 hours
Protocol: The experimental results of the effect of 2-deoxy-L-ribose on the chemotaxis of BAE cell (endothelial cells of bovine aorta) are shown in FIG. 1. The numbers of inoculated cell 400000, incubation 4.5 hours Chamber coated by type 1 collagen: MTT method From left side, 1: DMEM+1% FCS (fetal calf serum) 2: 1+bFGF (angiogenesis factor) 10 ng/mL, 3: 1+2DDR (2-deoxy-D-ribose) 1 μM 4: 1+2DDR 10 μM 5: 1+2DDR 100 μM 6: 1+2DDR 10 μM+2DLR100 μM The effect of 2DLR ([…]) is obvious from the comparison between the date 4 and 6.

KB/TP cells = test: TP-dependent liver metastasis after injection of tumor cells into the spleen; format: in vivo, mouse; conditions: for number of metastatic nodules in liver: KB/TP cell into spleen, 4 weeks, Balb/nude mouse
Protocol: A Balb/nude mouse of 7-8 weeks age is anesthetized by Nembutal (pentobarbital) and abdomen is slightly incised so as to observe the spleen. 1×10^5 numbers of KB/CV cells or KB/TP cells used in Example 2 is injected into the spleen. After one minute, the spleen is excised and the incised position is sutured. 2-deoxy-L-ribose (100 mg/kg/day) is injected to subcutaneous by two times (morning and evening) every day or one time every other day. To the control group, same amount of physiological saline is injected. After 4 weeks from therapy starting, abdomen is incised, the liver is excised and the number of metastatic nodules are counted. […] The number of metastatic lesions of KB/TP cell is obviously larger than those of KB/CV cell.

**Q.** What does the source list for `O=CC[C@@H](O)[C@@H](O)CO` [2-deoxy-L-ribose]?
**A.** suppression of the angiogenesis by TP ([1]; 100 mg/kg/day into abdominal cavity for 4 days, overall conclusion): perfectly supressing the angiogenesis by TP; number of angiogenesis (longer than 3 mm, zig-zag pattern) ([1]; KB/TP cell (D)): 2.83; number of angiogenesis (longer than 3 mm, zig-zag pattern) ([1]; KB/TP cell (E) as printed): 2.83; effect on the chemotaxis of BAE cell [2]: obvious; suppression of TP-dependent metastasis of tumor from spleen to liver (KB/TP cells; 100 mg/kg/day subcutaneous, overall conclusion): perfectly suppressing the TP-dependent metastasis of tumor from spleen to liver; number of metastatic nodules in liver (KB/TP cells; 100 mg/kg/day subcutaneous one time every other day): smaller than the number of metastatic nodules of KB/CV cell; number of metastatic nodules in liver (KB/TP cells; 100 mg/kg/day subcutaneous two times (morning and evening) every day (LR)): smaller than the number of metastatic nodules of KB/CV cell

From patent publication US20040048807A1, “Angiogenesis inhibitors” (priority 2000, published 2004)
